Patent US8551978B2 (Theravance, Inc., priority 2009, dated 2013)
Structures can show the parent of a compound that is named as a salt. Where two headings read alike, the source gives them in different places.

Assays:
hM3 muscarinic receptor = hM3 muscarinic receptor (Homo sapiens (Human), UniProt P20309); test: Radioligand binding assay for muscarinic receptors ([3H]-NMS displacement, CHO cell membranes)
How it was run: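 [3H]-NMS displacement used homogenized CHO membranes, with test compounds at final concentrations of […]. Plates were incubated 6 hours at 37 °C, then filtered and read by liquid scintillation counting. A one-site competition fit gave values that were converted to Ki.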

[1] = system: MCh-induced bronchoconstriction; test: Einthoven assay: bronchoprotection against methacholine (MCh)-induced bronchoconstriction; format: in vivo, rat; settings: for inhibition in vivo at 0.1 mg: inhaled or nasal, read-out: Broncho. at 24 h
How it was run: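 Male Sprague-Dawley rats received 100 μg compound (unless stated) or water vehicle by 10-min inhalation. At set times, anesthetized, ventilated rats were challenged with IV MCh at 40 and 80 μg/kg (2.5-min infusions). Ventilation-pressure rise is expressed as % inhibition versus vehicle controls.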

hβ2 adrenergic receptor = hβ2 adrenergic receptor (Homo sapiens (Human), UniProt P07550); test: Assay for determining adrenergic receptor agonist potency (cAMP Flashplate, HEK-293 cells); format: cell-based; settings: data rounded to nearest 1 nM
Chain of hβ2 adrenergic receptor (P07550 whole entry): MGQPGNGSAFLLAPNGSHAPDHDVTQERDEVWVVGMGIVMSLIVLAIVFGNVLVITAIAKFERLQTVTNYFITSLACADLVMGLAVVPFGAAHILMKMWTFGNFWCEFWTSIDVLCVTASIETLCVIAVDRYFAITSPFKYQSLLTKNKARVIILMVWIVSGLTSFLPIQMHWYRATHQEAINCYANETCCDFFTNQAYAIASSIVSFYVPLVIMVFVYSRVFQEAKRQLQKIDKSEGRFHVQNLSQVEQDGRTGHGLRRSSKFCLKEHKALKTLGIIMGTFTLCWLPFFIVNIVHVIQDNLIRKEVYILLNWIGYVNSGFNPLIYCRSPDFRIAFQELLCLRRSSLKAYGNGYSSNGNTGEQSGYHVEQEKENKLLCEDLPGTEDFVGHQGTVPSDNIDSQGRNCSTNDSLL

[2] = hM3 Muscarinic Receptor Binding, data rounded to nearest 0.1 nM
[3] = rat, 100 μg by inhalation, 24 h after administration

Chain of hM3 muscarinic receptor (P20309 whole entry): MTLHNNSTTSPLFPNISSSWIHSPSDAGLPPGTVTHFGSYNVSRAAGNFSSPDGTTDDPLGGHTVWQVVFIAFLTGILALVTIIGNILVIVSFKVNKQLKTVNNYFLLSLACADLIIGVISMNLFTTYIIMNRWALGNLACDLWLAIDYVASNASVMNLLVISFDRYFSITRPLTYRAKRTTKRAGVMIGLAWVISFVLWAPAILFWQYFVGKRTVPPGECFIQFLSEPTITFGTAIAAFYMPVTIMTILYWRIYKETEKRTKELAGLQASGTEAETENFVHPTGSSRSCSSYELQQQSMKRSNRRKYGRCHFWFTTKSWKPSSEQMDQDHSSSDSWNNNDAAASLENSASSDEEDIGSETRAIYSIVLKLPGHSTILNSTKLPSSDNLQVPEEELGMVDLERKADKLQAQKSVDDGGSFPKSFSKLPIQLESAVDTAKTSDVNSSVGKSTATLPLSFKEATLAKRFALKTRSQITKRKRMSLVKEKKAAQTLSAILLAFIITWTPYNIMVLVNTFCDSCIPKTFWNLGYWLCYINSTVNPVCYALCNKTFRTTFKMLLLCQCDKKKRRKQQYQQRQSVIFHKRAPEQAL

Compound: COc1cc(NC(=O)c2cccc(N(C)C(=O)CCN3CCC(OC(=O)Nc4ccccc4-c4ccccc4)CC3)c2)c(Cl)cc1CNC[C@H](O)c1ccc(O)c2[nH]c(=O)ccc12 [Compound I-31]
- Ki (hM3 muscarinic receptor; [2]): 200 pM
- inhibition in vivo at 0.1 mg [1, 3]: > 30%
- EC50 (hβ2 adrenergic receptor): 1000 pM

Compound: CN(C(=O)CCN1CCC(OC(=O)Nc2ccccc2-c2ccccc2)CC1)c1ccc(CC(=O)NCc2cccc(CCNC[C@H](O)c3ccc(O)c4[nH]c(=O)ccc34)c2)cc1 [Compound I-65]
- Ki (hM3 muscarinic receptor): 100 pM
- inhibition in vivo at 0.1 mg [1, 3]: > 30%
- EC50 (hβ2 adrenergic receptor): 1000 pM

Compound: CN(CCCC(=O)Nc1cccc(CCNC[C@H](O)c2ccc(O)c3[nH]c(=O)ccc23)c1)C(=O)CCN1CCC(OC(=O)Nc2ccccc2-c2ccccc2)CC1 [Compound I-7, Biphenyl-2-ylcarbamic Acid 1-(2-{[3-(3-{2-[(R)-2-Hydroxy-2-(8-hydroxy-2-oxo-1,2-dihydroquinolin-5-yl)ethylamino]ethyl}phenylcarbamoyl)-propyl]methylcarbamoyl}ethyl)piperidin-4-yl Ester Ditrifluoroacetic Acid Salt]
- Ki (hM3 muscarinic receptor): 100 pM
- inhibition in vivo at 0.1 mg ([1]; Rattus norvegicus, 24 h): > 30%
- EC50 (hβ2 adrenergic receptor): 1000 pM

Compound: CC(Cc1ccc(CNC(=O)c2cccc(N(C)C(=O)CCN3CCC(OC(=O)Nc4ccccc4-c4ccccc4)CC3)c2)cc1)NC[C@H](O)c1ccc(O)c2[nH]c(=O)ccc12 (stereo partly drawn) [Compound I-46]
- Ki (hM3 muscarinic receptor): 100 pM
- inhibition in vivo at 0.1 mg [1, 3]: > 30%
- EC50 (hβ2 adrenergic receptor): 1000 pM

Compound: Cc1ccc(C(=O)Nc2ccc(CC(C)NC[C@H](O)c3ccc(O)c4[nH]c(=O)ccc34)cc2)cc1N(C)C(=O)CCN1CCC(OC(=O)Nc2ccccc2-c2ccccc2)CC1 (stereo partly drawn) [Compound I-41]
- Ki (hM3 muscarinic receptor; [2]): 300 pM
- Broncho. at 24 h [1, 3]: No
- EC50 (hβ2 adrenergic receptor): 1000 pM

Compound: CC(Cc1cccc(CC(=O)Nc2cccc(N(C)C(=O)CCN3CCC(OC(=O)Nc4ccccc4-c4ccccc4)CC3)c2)c1)NC[C@H](O)c1ccc(O)c2[nH]c(=O)ccc12 (stereo partly drawn) [Compound I-52]
- Ki (hM3 muscarinic receptor): 200 pM
- Broncho. at 24 h [1, 3]: No
- EC50 (hβ2 adrenergic receptor): 1000 pM

Compound: CC(Cc1cccc(NC(=O)c2cccc(N(C)C(=O)CCN3CCC(OC(=O)Nc4ccccc4-c4ccccc4)CC3)c2)c1)NC[C@H](O)c1ccc(O)c2[nH]c(=O)ccc12 (stereo partly drawn) [Compound I-36]
- Ki (hM3 muscarinic receptor): 200 pM
- inhibition in vivo at 0.1 mg [1, 3]: > 30%
- EC50 (hβ2 adrenergic receptor): 1000 pM

Compound: COc1ccc(CC(=O)NCc2ccc(N(C)C(=O)CCN3CCC(OC(=O)Nc4ccccc4-c4ccccc4)CC3)cc2)cc1CC(C)NC[C@H](O)c1ccc(O)c2[nH]c(=O)ccc12 (stereo partly drawn) [Compound I-81]
- Ki (hM3 muscarinic receptor; [2]): 100 pM
- inhibition in vivo at 0.1 mg [1, 3]: > 30%
- EC50 (hβ2 adrenergic receptor): 1000 pM

Compound: C[C@H](Cc1cccc(NC(=O)c2cccc(N(C)C(=O)CCN3CCC(OC(=O)Nc4ccccc4-c4ccccc4)CC3)c2)c1)NC[C@H](O)c1ccc(O)c2[nH]c(=O)ccc12 [Compound I-38]
- Ki (hM3 muscarinic receptor): 200 pM
- Broncho. at 24 h [1, 3]: No
- EC50 (hβ2 adrenergic receptor): 1000 pM

Compound: Cc1ccc(C(=O)NCc2cccc(CC(C)NC[C@H](O)c3ccc(O)c4[nH]c(=O)ccc34)c2)cc1N(C)C(=O)CCN1CCC(OC(=O)Nc2ccccc2-c2ccccc2)CC1 (stereo partly drawn) [Compound I-45]
- Ki (hM3 muscarinic receptor; [2]): 200 pM
- Broncho. at 24 h [1, 3]: No
- EC50 (hβ2 adrenergic receptor): 1000 pM

Compound: COc1cc(CNC[C@H](O)c2ccc(O)c3[nH]c(=O)ccc23)ccc1NC(=O)CCCN(C)C(=O)CCN1CCC(OC(=O)Nc2ccccc2-c2ccccc2)CC1 [Compound I-3]
- Ki (hM3 muscarinic receptor; [2]): 100 pM
- inhibition in vivo at 0.1 mg [1, 3]: > 30%
- EC50 (hβ2 adrenergic receptor): 1000 pM

Compound: CC(Cc1ccc(CC(=O)NCc2ccc(N(C)C(=O)CCN3CCC(OC(=O)Nc4ccccc4-c4ccccc4)CC3)cc2)cc1)NC[C@H](O)c1ccc(O)c2[nH]c(=O)ccc12 (stereo partly drawn) [Compound I-80]
- Ki (hM3 muscarinic receptor; [2]): 200 pM
- Broncho. at 24 h [1, 3]: No
- EC50 (hβ2 adrenergic receptor): 1000 pM

Compound: CN(C(=O)CCN1CCC(OC(=O)Nc2ccccc2-c2ccccc2)CC1)c1cccc(C(=O)Nc2cccc(CCNC[C@H](O)c3ccc(O)c4[nH]c(=O)ccc34)c2)c1 [Compound I-32]
- Ki (hM3 muscarinic receptor): 100 pM
- Broncho. at 24 h [1, 3]: No
- EC50 (hβ2 adrenergic receptor): 1000 pM

Compound: C[C@@H](Cc1cccc(CNC(=O)Cc2ccc(N(C)C(=O)CCN3CCC(OC(=O)Nc4ccccc4-c4ccccc4)CC3)cc2)c1)NC[C@H](O)c1ccc(O)c2[nH]c(=O)ccc12 [Compound I-69]
- Ki (hM3 muscarinic receptor): 100 pM
- inhibition in vivo at 0.1 mg [1, 3]: > 30%
- EC50 (hβ2 adrenergic receptor): 1000 pM

Compound: COc1cc(NC(=O)CCCN(C)C(=O)CCN2CCC(OC(=O)Nc3ccccc3-c3ccccc3)CC2)c(Cl)cc1CNC[C@H](O)c1ccc(O)c2[nH]c(=O)ccc12 [Compound I-6]
- Ki (hM3 muscarinic receptor; [2]): 100 pM
- inhibition in vivo at 0.1 mg [1, 3]: > 30%
- EC50 (hβ2 adrenergic receptor): 1000 pM

Compound: C[C@@H](Cc1cccc(CCNC(=O)c2ccc(N(C)C(=O)CCN3CCC(OC(=O)Nc4ccccc4-c4ccccc4)CC3)cc2)c1)NC[C@H](O)c1ccc(O)c2[nH]c(=O)ccc12 [Compound I-56]
- Ki (hM3 muscarinic receptor; [2]): 200 pM
- Broncho. at 24 h [1, 3]: No
- EC50 (hβ2 adrenergic receptor): 1000 pM

Compound: Cc1cc(CNC[C@H](O)c2ccc(O)c3[nH]c(=O)ccc23)ccc1NC(=O)CCCCN(C)C(=O)CCN1CCC(OC(=O)Nc2ccccc2-c2ccccc2)CC1 [Compound I-15]
- Ki (hM3 muscarinic receptor): 100 pM
- inhibition in vivo at 0.1 mg [1, 3]: > 30%
- EC50 (hβ2 adrenergic receptor): 1000 pM

Compound: Cc1cc(NC(=O)c2cccc(N(C)C(=O)CCN3CCC(OC(=O)Nc4ccccc4-c4ccccc4)CC3)c2)c(C)cc1CNC[C@H](O)c1ccc(O)c2[nH]c(=O)ccc12 [Compound I-30]
- Ki (hM3 muscarinic receptor): 200 pM
- Broncho. at 24 h [1, 3]: No
- EC50 (hβ2 adrenergic receptor): 1000 pM

Compound: COc1ccc(CC(=O)NCc2ccc(N(C)C(=O)CCN3CCC(OC(=O)Nc4ccccc4-c4ccccc4)CC3)cc2)cc1C[C@@H](C)NC[C@H](O)c1ccc(O)c2[nH]c(=O)ccc12 [Compound I-82]
- Ki (hM3 muscarinic receptor; [2]): 100 pM
- inhibition in vivo at 0.1 mg [1, 3]: > 30%
- EC50 (hβ2 adrenergic receptor): 1000 pM

Compound: CC(Cc1ccc(CC(=O)Nc2cccc(N(C)C(=O)CCN3CCC(OC(=O)Nc4ccccc4-c4ccccc4)CC3)c2)cc1)NC[C@H](O)c1ccc(O)c2[nH]c(=O)ccc12 (stereo partly drawn) [Compound I-53]
- Ki (hM3 muscarinic receptor): 100 pM
- Broncho. at 24 h [1, 3]: No
- EC50 (hβ2 adrenergic receptor): 1000 pM

Compound: COc1cc(CNC[C@H](O)c2ccc(O)c3[nH]c(=O)ccc23)ccc1NC(=O)CCCCN(C)C(=O)CCN1CCC(OC(=O)Nc2ccccc2-c2ccccc2)CC1 [Compound I-16]
- Ki (hM3 muscarinic receptor): 100 pM
- inhibition in vivo at 0.1 mg [1, 3]: > 30%
- EC50 (hβ2 adrenergic receptor): 1000 pM

Compound: COc1cc(NC(=O)CCCCN(C)C(=O)CCN2CCC(OC(=O)Nc3ccccc3-c3ccccc3)CC2)c(Cl)cc1CNC[C@H](O)c1ccc(O)c2[nH]c(=O)ccc12 [Compound I-19]
- Ki (hM3 muscarinic receptor): 100 pM
- inhibition in vivo at 0.1 mg [1, 3]: > 30%
- EC50 (hβ2 adrenergic receptor): 1000 pM

Compound: CN(CCCCC(=O)Nc1ccc(CNC[C@H](O)c2ccc(O)c3[nH]c(=O)ccc23)cc1)C(=O)CCN1CCC(OC(=O)Nc2ccccc2-c2ccccc2)CC1 [Compound I-14, Biphenyl-2-ylcarbamic Acid 1-(2-{[4-(4-{[(R)-2-hydroxy-2-(8-hydroxy-2-oxo-1,2-dihydroquinolin-5-yl)ethylamino]methyl}phenylcarbamoyl)-butyl]methylcarbamoyl}ethyl)piperidin-4-yl Ester Ditrifluoroacetic Acid Salt]
- Ki (hM3 muscarinic receptor): 100 pM
- inhibition in vivo at 0.1 mg ([1]; Rattus norvegicus, 24 h): > 30%
- EC50 (hβ2 adrenergic receptor): 1000 pM

Compound: C[C@@H](Cc1ccc(CNC(=O)c2cccc(N(C)C(=O)CCN3CCC(OC(=O)Nc4ccccc4-c4ccccc4)CC3)c2)cc1)NC[C@H](O)c1ccc(O)c2[nH]c(=O)ccc12 [Compound I-49]
- Ki (hM3 muscarinic receptor): 100 pM
- inhibition in vivo at 0.1 mg [1, 3]: > 30%
- EC50 (hβ2 adrenergic receptor): 1000 pM

Compound: CN(C(=O)CCN1CCC(OC(=O)Nc2ccccc2-c2ccccc2)CC1)c1ccc(CC(=O)NCc2ccc(CCNC[C@H](O)c3ccc(O)c4[nH]c(=O)ccc34)cc2)cc1 [Compound I-64]
- Ki (hM3 muscarinic receptor; [2]): 300 pM
- Broncho. at 24 h [1, 3]: No
- EC50 (hβ2 adrenergic receptor): 1000 pM

Compound: CC(Cc1cccc(CCC(=O)NCc2ccc(N(C)C(=O)CCN3CCC(OC(=O)Nc4ccccc4-c4ccccc4)CC3)cc2)c1)NC[C@H](O)c1ccc(O)c2[nH]c(=O)ccc12 (stereo partly drawn) [Compound I-91]
- Ki (hM3 muscarinic receptor): 200 pM
- inhibition in vivo at 0.1 mg [1, 3]: > 30%
- EC50 (hβ2 adrenergic receptor): 1000 pM

Compound: CC(Cc1ccc(CCNC(=O)Cc2ccc(N(C)C(=O)CCN3CCC(OC(=O)Nc4ccccc4-c4ccccc4)CC3)cc2)cc1)NC[C@H](O)c1ccc(O)c2[nH]c(=O)ccc12 (stereo partly drawn) [Compound I-88]
- Ki (hM3 muscarinic receptor): 100 pM
- inhibition in vivo at 0.1 mg [1, 3]: > 30%
- EC50 (hβ2 adrenergic receptor): 1000 pM
